Read-outs that look alike come from different tables or passages of the source.
Assays:
CYP26A1 = biological target: T1, CYP26A1 (Mus musculus, UniProt O55127); conditions: 0.1 mM, 4 h, cells in culture
T1 sequence (O55127 1-497): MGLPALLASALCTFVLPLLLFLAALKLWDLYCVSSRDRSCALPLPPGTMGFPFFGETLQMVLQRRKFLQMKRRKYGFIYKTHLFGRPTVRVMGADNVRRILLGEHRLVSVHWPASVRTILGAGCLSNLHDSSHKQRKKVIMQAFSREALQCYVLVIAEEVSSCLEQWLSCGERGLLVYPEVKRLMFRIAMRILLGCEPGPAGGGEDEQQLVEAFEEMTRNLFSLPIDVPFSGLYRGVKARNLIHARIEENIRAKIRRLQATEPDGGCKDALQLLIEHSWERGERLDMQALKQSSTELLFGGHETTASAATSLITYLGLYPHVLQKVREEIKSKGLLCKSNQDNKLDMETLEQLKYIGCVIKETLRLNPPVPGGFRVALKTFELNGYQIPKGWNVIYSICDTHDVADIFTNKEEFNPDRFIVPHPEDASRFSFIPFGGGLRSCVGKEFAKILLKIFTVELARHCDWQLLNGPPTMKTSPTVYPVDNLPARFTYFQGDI
Description: CYP26A1 Oxidation Assay. […] After 24 h, the transfected cells were split into 12-well plates to ensure an equal number of transfected cells in each assay well. […] The peaks were identified based on their spectra and coelution with standards. The cell lysate was examined for expression of CYP26A1, -B1, and -C1 by SDS-PAGE and immunoblotting of the V5 epitope-tagged recombinant protein using an anti-V5 epitope monoclonal antibody (Invitrogen).

[1] = Liver retinoids of Lrat-/- mice 3 h after gavage with all-trans-ROL palmitate; type: in vivo, mouse; conditions: for Level of liver retinoids 3 hr following gavage with ROL palmitate / concentration at 3 h: Lrat-/- mice, 3 hr post-gavage, liver; for concentration at 3 h: Lrat−/− (LRAT-deficient knockout), mouse, oral, read-out: Level of liver retinoids 3 hr following gavage with ROL palmitate
From the text: Metabolism of Retinoids in Vivo. All animal experiments employed procedures approved by the University of Washington and conformed to recommendations of the American Veterinary Medical Association Panel on Euthanasia and recommendations of the Association of Research for Vision and Ophthalmology. Animals were maintained on a 12-h light and 12-h dark cycle. All manipulations were done under dim red or infrared light (>560 nm). Most experiments used 6-12-week-old mice. Lrat−/− mice were genotyped as described previously. Batten, et al. J. Biol. Chem. 279:10422-10432, 2004. Animals were maintained on a control chow diet up to 1 h prior to oral gavage. The appropriate amount of all-trans-ROL palmitate, all-trans-DROL, or all-trans-RA was dissolved in vegetable oil and administered by oral gavage 3 h prior to analysis.
Analysis of Retinoids. Liver (1 g) from retinoid gavaged or naive mice was homogenized in 2 ml of 137 mM NaCl, 2.7 mM KCl, and 10 mM sodium phosphate (pH 7.4) for 30 s using a Polytron homogenizer. 10 μl of 5 M NaOH was added to 3 ml of the ethanolic extract, and the nonpolar retinoids were extracted using 5 ml of hexane. The extraction was repeated, and the organic phases were combined, dried under vacuum, resuspended in hexane, and examined by normal phase HPLC using a normal phase column (Beckman Ultrasphere Si 5μ, 4.6×250 mm). The elution condition was an isocratic solvent system of 10% ethyl acetate in hexane (v/v) for 25 min at a flow rate of 1.4 ml/min at 20° C. with detection at 325 and 290 nm for the detection of nonpolar retinoids and 13,14-dihydroretinoids, respectively. The aqueous phase was acidified with 40 μl of 12 N HCl, and polar retinoids were extracted with 5 ml of hexane. The extraction was repeated, and the organic phases of the polar retinoid extractions were combined, dried, resuspended in solvent composed of 80% CH3CN, 10 mM ammonium acetate, 1% acetic acid, and examined by reverse phase HPLC. Analysis of polar retinoids from tissues was done by reverse phase HPLC using a narrowbore, 120-Å, 5-μm, 2.1×250 mm, Denali C18 column (Grace-Vydac, Hesperia, Calif.). The solvent system was composed of buffer A, 80% methanol, 20% 36 mM ammonium acetate (pH 4.7 adjusted with acetic acid), and buffer B, 100% methanol. The HPLC elution conditions were […], 100% buffer A for 40 min, 100% buffer B for 10 min, and 10 min equilibration in buffer A. The elution profiles of RA and DRA were monitored using an online diode array detector set at 350 and 290 nm, respectively. The peaks were identified based on their UV-visible spectra and/or coelution with synthetic or commercially available standards. The measured area of absorbance was converted to picomoles based on a calibration of the HPLC columns using a known amount of all-trans-RA or all-trans-ROL (Sigma) and all-trans-DROL or all-trans-DRA (synthetic standards). The extraction efficiency was monitored by spiking a tissue sample with [^3H]RA (PerkinElmer Life Sciences) and monitoring the radioactivity recovered from the HPLC column. In the case of liver samples the extraction efficiency was 95% or better. Mass spectrometry analyses of synthesized retinoids and of natural retinoids purified by HPLC were performed using a Kratos profile HV-3 direct probe mass spectrometer.

[2] = Conversion of DROL to DRA by RPE microsomes; type: in vitro ADME; conditions: in the presence of NAD and NADP
Description: Conversion of DROL to DRA in RPE. UV-treated RPE microsomes were prepared as described previously. Stecher, et al. J. Biol. Chem. 274:8577-8585, 1999. Twenty μl of UV-treated RPE microsomes (3 mg/ml) were mixed with 20 μM DROL or ROL substrates, 1% bovine serum albumin, and 50 mM Tris (pH 8.8) and were incubated at 37° C. for 60 min in the presence or absence of NAD NADP cofactor mixture at 50 μM each. In order to stop the reaction, proteins were precipitated by mixing with an equal volume of CH3CN followed by high speed centrifugation. […] A boiled RPE membrane control was used to assay nonenzymatic conversion of DROL. The elution of all-trans-DROL metabolites was monitored at 290 nm.

Equine liver ADH = biological target: T2, Equine liver ADH (Equus caballus, UniProt P00327); experiment: Oxidation using liver alcohol dehydrogenase; type: biochemical, horse; conditions: in the presence of NAD and NADP
T2 construct: we used ADH purified from horse liver (EC 1.1.1.1 [EC]); purchased Sigma; host or cells: horse liver
T2 sequence (P00327 2-375 limits assumed): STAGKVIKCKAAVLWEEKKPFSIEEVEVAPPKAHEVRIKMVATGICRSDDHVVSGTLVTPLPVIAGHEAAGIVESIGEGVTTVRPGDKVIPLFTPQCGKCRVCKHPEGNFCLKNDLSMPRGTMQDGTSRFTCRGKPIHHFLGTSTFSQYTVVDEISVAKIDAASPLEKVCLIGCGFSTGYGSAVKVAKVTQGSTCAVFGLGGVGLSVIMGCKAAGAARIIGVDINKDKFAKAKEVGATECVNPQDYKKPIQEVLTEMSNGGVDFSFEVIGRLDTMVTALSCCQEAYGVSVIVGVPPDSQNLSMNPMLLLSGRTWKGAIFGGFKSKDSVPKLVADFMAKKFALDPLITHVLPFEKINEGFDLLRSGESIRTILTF
Description: Oxidation of All-trans-ROL and All-trans-DROL Using Liver Alcohol Dehydrogenase. Equine liver ADH (EC 1.1.1.1 [EC] ) was obtained from Sigma and dissolved in 50 mM Tris (pH 8.8) to a concentration of 5 units/ml (8.6 mg/ml). NAD and NADP were mixed together (1:1) at a concentration of 10 mM each. A substrate solution, 2 μl of 2 mM stock of all-trans-ROL or all-trans-DROL in N,N-dimethylformamide, was added to a 1.5-ml Eppendorf tube containing 20 μl of 10% bovine serum albumin, 20 μl of ADH, 2 μl of cofactor mixture, and 50 mM Tris (pH 8.8) to a total volume of 200 μl. The solutions were incubated at 37° C. for 60 min, after which 50 μl of 0.8 M NH2OH solution (pH 7.0) was added, followed by addition of 300 μl of methanol, 15 min at room temperature, and extraction with 300 μl of hexane. The organic phase was dried and analyzed by normal phase HPLC as described in the analysis of nonpolar retinoids extracted from tissue samples. As a control for the nonenzymatic reaction, boiled protein (90° C. for 5 min) was used with or without addition of cofactors.

[3] = 3 h post-gavage with ROL palmitate
[4] = 10^5 IU/kg body weight all-trans-ROL palmitate
[5] = 10^6 IU/kg body weight all-trans-ROL palmitate

SMILES: CC1=C(/C=C/C(C)=C/C=C/C(C)CC(=O)O)C(C)(C)CCC1 (stereo not drawn) [all-trans-DRA, all-trans-13,14-dihydroretinoic acid]
- Oxidation to polar metabolites by CYP26A1 (CYP26A1): efficiently carried out the oxidation
- Liver level, fold lower than all-trans-RA [1, 3]: 30-50 fold
- Level of liver retinoids 3 hr following gavage with ROL palmitate [1, 4]: 10 ± 2 pmol/g tissue
- Level of liver retinoids 3 hr following gavage with ROL palmitate [1, 5]: 190 ± 17 pmol/g tissue

SMILES: CC1=C(/C=C/C(C)=C/C=C/C(C)CCO)C(C)(C)CCC1 (stereo not drawn) [all-trans-DROL, all-trans-13,14-dihydroretinol]
- Liver level, fold lower than all-trans-ROL [1, 3]: 280-330 fold
- Level of liver retinoids 3 hr following gavage with ROL palmitate [1, 4]: 21 ± 4 pmol/g tissue
- Level of liver retinoids 3 hr following gavage with ROL palmitate [1, 5]: 100 ± 18 pmol/g tissue
- Conversion to the acid by RPE microsomes [2]: efficiently converted
- Oxidation to the aldehyde by ADH (Equine liver ADH): efficiently carried out the conversion

SMILES: CC1=C(/C=C/C(C)=C/C=C/C(C)=C/C(=O)O)C(C)(C)CCC1 [all-trans-RA, all-trans-retinoic acid, reference compound]
- Oxidation to polar metabolites by CYP26A1 (CYP26A1): efficiently carried out the oxidation
- concentration at 3 h [1, 4]: 0.32 ± 0.24 µM
- concentration at 3 h [1, 5]: 9.4 µM

SMILES: CC1=C(/C=C/C(C)=C/C=C/C(C)=C/CO)C(C)(C)CCC1 [all-trans-ROL, all-trans-retinol]
- Level of liver retinoids 3 hr following gavage with ROL palmitate [1, 4]: 7,000 ± 1,200 pmol/g tissue
- Level of liver retinoids 3 hr following gavage with ROL palmitate [1, 5]: 28,000 ± 300 pmol/g tissue
- Conversion to the acid by RPE microsomes [2]: catalyzed the conversion
- Oxidation to the aldehyde by ADH (Equine liver ADH): efficiently carried out the conversion
